The values below come from patent US20220177538A1, “CO-AGONISTS AT GLP-1 AND GIP RECEPTORS SUITABLE FOR ORAL DELIVERY” (Novo Nordisk A/S, priority 2020, published 2022).

Read-outs that look alike come from different tables or passages of the source. Starred links: 1 amine or outer side, 2 acyl side, 3 side chain; linkers in the order of their positions; H or OH if unused. Non-standard residues stand in square brackets, D forms with d. Residues, ends and D or L forms follow the SMILES beside them. Groups on a side chain read outwards from the residue. *: point of attachment. C18 diacid = O=C(O)CCCCCCCCCCCCCCCCC(=O)*; γGlu = O=C(O)[C@H](CCC(=O)[*:2])N[*:1]; εLys = N[C@@H](CCCCN[*:1])C(=O)[*:2]; Aib = CC(C)(N)C(=O)O

The experiment addresses T1, human GIP receptor (Homo sapiens, UniProt P48546).
T1 construct: expressed in transfected cells; host or cells: BHK (parent line BHKTS13), clone BHK CRE luc2P hGIPR
T1 sequence (P48546 22-466): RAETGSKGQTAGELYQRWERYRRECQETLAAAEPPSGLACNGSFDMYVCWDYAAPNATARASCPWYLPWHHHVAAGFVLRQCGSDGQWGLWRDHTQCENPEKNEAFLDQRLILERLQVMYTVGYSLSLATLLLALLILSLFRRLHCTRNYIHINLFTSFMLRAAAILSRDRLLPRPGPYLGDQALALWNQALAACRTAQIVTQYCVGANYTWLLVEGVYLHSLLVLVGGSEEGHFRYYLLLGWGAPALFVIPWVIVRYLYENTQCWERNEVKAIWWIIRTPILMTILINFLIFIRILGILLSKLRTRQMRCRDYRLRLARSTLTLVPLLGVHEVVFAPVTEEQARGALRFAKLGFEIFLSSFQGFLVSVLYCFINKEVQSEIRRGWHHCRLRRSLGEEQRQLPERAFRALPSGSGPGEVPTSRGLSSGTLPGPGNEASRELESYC
The experiment can be described thus: In vitro functional potency, CRE luciferase reporter, whole BHK cells (hGIPR). The format is cell-based. The settings on record: BHK CRE luc2P hGIPR cells. The method in brief: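 Potencies are replicate means (n≥2) from non-linear log(agonist) vs response fits of CRE-driven luminescence. Cells were overnight-plated BHK CRE luc2P lines transfected with human GIPR or GLP-1R, 5000/well.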

Where [1] appears, read: 0% HSA, read-out: hGIPR, CRE Luc 0% HSA EC50.
Setting [2] is: hGIPR, CRE Luc 1% HSA EC50, 1% HSA.

With `CC[C@H](C)[C@H](NC(=O)[C@H](Cc1ccccc1)NC(=O)[C@H](CCC(=O)O)NC(=O)[C@H](CCCNC(=N)N)NC(=O)[C@H](C)NC(=O)[C@H](C)NC(=O)[C@H](CCC(N)=O)NC(=O)[C@H](CCCCNC(=O)[C@@H](N)CCCCNC(=O)[C@@H](N)CCCCNC(=O)CC[C@H](NC(=O)CCCCCCCCCCCCCCCCC(=O)O)C(=O)O)NC(=O)[C@H](CCC(=O)O)NC(=O)[C@H](CC(C)C)NC(=O)[C@H](CC(C)C)NC(=O)[C@@H](NC(=O)[C@H](CO)NC(=O)[C@H](Cc1ccc(O)cc1)NC(=O)[C@H](CC(=O)O)NC(=O)[C@H](CO)NC(=O)[C@@H](NC(=O)[C@H](Cc1ccccc1)NC(=O)[C@@H](NC(=O)CNC(=O)[C@H](CCC(=O)O)NC(=O)C(C)(C)NC(=O)[C@@H](N)Cc1ccc(O)cc1)[C@@H](C)O)[C@@H](C)O)[C@@H](C)CC)C(=O)N[C@@H](CCC(=O)O)C(=O)N[C@@H](Cc1c[nH]c2ccccc12)C(=O)N[C@@H](CC(C)C)C(=O)N[C@@H](CC(C)C)C(=O)N[C@@H](C)C(=O)NCC(=O)NCC(=O)N1CCC[C@H]1C(=O)N[C@@H](CO)C(=O)N[C@@H](CO)C(=O)NCC(=O)N[C@@H](C)C(=O)N1CCC[C@H]1C(=O)N1CCC[C@H]1C(=O)N1CCC[C@H]1C(=O)N[C@@H](CO)C(=O)O` [Compound 31] (H-Y[Aib]EGTFTSDYSILLEK([εLys-εLys-γGlu-C18 diacid])QAAREFIEWLLAGGPSSGAPPPS-OH), the EC50 by setting is: under setting [1], 0.0047 nM; under setting [2], 0.189 nM.
Regarding `CC[C@H](C)[C@H](NC(=O)[C@H](Cc1ccccc1)NC(=O)[C@H](CCC(=O)O)NC(=O)[C@H](CCCNC(=N)N)NC(=O)[C@H](C)NC(=O)[C@H](C)NC(=O)[C@H](CCC(N)=O)NC(=O)[C@H](CCCCNC(=O)[C@@H](N)CCCCNC(=O)[C@@H](N)CCCCNC(=O)CC[C@H](NC(=O)CCCCCCCCCCCCCCCCC(=O)O)C(=O)O)NC(=O)[C@H](CCC(=O)O)NC(=O)[C@H](CC(C)C)NC(=O)[C@H](CC(C)C)NC(=O)[C@@H](NC(=O)[C@H](CO)NC(=O)[C@H](Cc1ccc(O)cc1)NC(=O)[C@H](CC(=O)O)NC(=O)[C@H](CO)NC(=O)[C@@H](NC(=O)[C@H](Cc1ccccc1)NC(=O)[C@@H](NC(=O)CNC(=O)[C@H](CCC(=O)O)NC(=O)C(C)(C)NC(=O)[C@@H](N)Cc1ccc(O)cc1)[C@@H](C)O)[C@@H](C)O)[C@@H](C)CC)C(=O)N[C@@H](CCC(=O)O)C(=O)N[C@@H](Cc1c[nH]c2ccccc12)C(=O)N[C@@H](CC(C)C)C(=O)N[C@@H](CC(C)C)C(=O)N[C@@H](CCCNC(=N)N)C(=O)NCC(=O)NCC(=O)N1CCC[C@H]1C(=O)N[C@@H](CCC(=O)O)C(=O)N[C@@H](CO)C(=O)NCC(=O)N[C@@H](C)C(=O)N1CCC[C@H]1C(=O)N1CCC[C@H]1C(=O)N1CCC[C@H]1C(=O)N[C@@H](CO)C(=O)O` [Compound 28] (H-Y[Aib]EGTFTSDYSILLEK([εLys-εLys-γGlu-C18 diacid])QAAREFIEWLLRGGPESGAPPPS-OH), the concentration giving a half-maximal response (EC50) runs as follows: (hGIPR, CRE Luc 0% HSA EC50, 0% HSA) 0.0066 nM; under setting [2], 0.0865 nM.
Regarding `CC[C@H](C)[C@H](NC(=O)[C@H](Cc1ccccc1)NC(=O)[C@H](CCC(=O)O)NC(=O)[C@H](CCC(N)=O)NC(=O)[C@H](C)NC(=O)[C@H](C)NC(=O)[C@H](CCC(N)=O)NC(=O)[C@H](CCCCNC(=O)[C@@H](N)CCCCNC(=O)[C@@H](N)CCCCNC(=O)CC[C@H](NC(=O)CCCCCCCCCCCCCCCCC(=O)O)C(=O)O)NC(=O)[C@H](CCC(=O)O)NC(=O)[C@H](CC(C)C)NC(=O)[C@H](CC(C)C)NC(=O)[C@@H](NC(=O)[C@H](CO)NC(=O)[C@H](Cc1ccc(O)cc1)NC(=O)[C@H](CC(=O)O)NC(=O)[C@H](CO)NC(=O)[C@@H](NC(=O)[C@H](Cc1ccccc1)NC(=O)[C@@H](NC(=O)CNC(=O)[C@H](CCC(=O)O)NC(=O)C(C)(C)NC(=O)[C@@H](N)Cc1ccc(O)cc1)[C@@H](C)O)[C@@H](C)O)[C@@H](C)CC)C(=O)N[C@@H](CCC(=O)O)C(=O)N[C@@H](Cc1c[nH]c2ccccc12)C(=O)N[C@@H](CC(C)C)C(=O)N[C@@H](CC(C)C)C(=O)N[C@@H](C)C(=O)NCC(=O)NCC(=O)N1CCC[C@H]1C(=O)N[C@@H](CO)C(=O)N[C@@H](CO)C(=O)NCC(=O)N[C@@H](C)C(=O)N1CCC[C@H]1C(=O)N1CCC[C@H]1C(=O)N1CCC[C@H]1C(=O)N[C@@H](CO)C(=O)O` [Compound 29] (H-Y[Aib]EGTFTSDYSILLEK([εLys-εLys-γGlu-C18 diacid])QAAQEFIEWLLAGGPSSGAPPPS-OH), the EC50 was found to be 0.0038 nM under setting [1] and 0.102 nM under setting [2].
